Literature values in article PMC4512239 (Clinical cancer research : an official journal of the …, 2015).

Settings: allosteric m-TOR inhibitors; cited from earlier work

half-life, ≥ 24 h:
CO[C@H]1C[C@@H]2CC[C@@H](C)[C@@](O)(O2)C(=O)C(=O)N2CCCC[C@H]2C(=O)O[C@H]([C@H](C)C[C@@H]2CC[C@@H](OCCO)[C@H](OC)C2)CC(=O)[C@H](C)/C=C(\C)[C@@H](O)[C@@H](OC)C(=O)[C@H](C)C[C@H](C)/C=C/C=C/C=C/1C [everolimus], CO[C@H]1C[C@@H]2CC[C@@H](C)[C@@](O)(O2)C(=O)C(=O)N2CCCC[C@H]2C(=O)O[C@H]([C@H](C)C[C@@H]2CC[C@@H](OP(C)(C)=O)[C@H](OC)C2)CC(=O)[C@H](C)/C=C(\C)[C@@H](O)[C@@H](OC)C(=O)[C@H](C)C[C@H](C)/C=C/C=C/C=C/1C [ridaforolimus], CO[C@H]1C[C@@H]2CC[C@@H](C)[C@@](O)(O2)C(=O)C(=O)N2CCCC[C@H]2C(=O)O[C@H]([C@H](C)C[C@@H]2CC[C@@H](OC(=O)C(C)(CO)CO)[C@H](OC)C2)CC(=O)[C@H](C)/C=C(\C)[C@@H](O)[C@@H](OC)C(=O)[C@H](C)C[C@H](C)/C=C/C=C/C=C/1C [temsirolimus]
